Measured values reported in ChEMBL document CHEMBL5385845, “Novel coumarin aminophosphonates as potential multitargeting antibacterial agents against Staphylococcus aureus” (Eur J Med Chem, 2023).
Values after ≈ are worked out from the molar mass of the structure shown. Active and inactive are the calls of the source. No cut-off for these calls is given here.

What was measured:
Staphylococcus aureus [1] = experiment: Antibacterial activity against methicillin resistant Staphylococcus aureus N315 assessed as inhibition of bacterial growth; assay type: functional
Enterococcus faecalis = experiment: Antibacterial activity against Enterococcus faecalis assessed as inhibition of bacterial growth; assay type: functional
Staphylococcus aureus [2] = experiment: Antibacterial activity against Staphylococcus aureus assessed as inhibition of bacterial growth; assay type: functional
Staphylococcus aureus [3] = experiment: Antibacterial activity against Staphylococcus aureus ATCC 25923 assessed as inhibition of bacterial growth; assay type: functional
Staphylococcus aureus [4] = experiment: Antibacterial activity against Staphylococcus aureus ATCC 29213 assessed as inhibition of bacterial growth; assay type: functional
Klebsiella pneumoniae = experiment: Antibacterial activity against Klebsiella pneumoniae assessed as inhibition of bacterial growth; assay type: functional
Escherichia coli [5] = experiment: Antibacterial activity against Escherichia coli assessed as inhibition of bacterial growth; assay type: functional
Pseudomonas aeruginosa [6] = experiment: Antibacterial activity against Pseudomonas aeruginosa assessed as inhibition of bacterial growth; assay type: functional
Acinetobacter baumannii = experiment: Antibacterial activity against Acinetobacter baumannii assessed as inhibition of bacterial growth; assay type: functional
Pseudomonas aeruginosa [7] = experiment: Antibacterial activity against Pseudomonas aeruginosa ATCC 27853 assessed as inhibition of bacterial growth; assay type: functional
Escherichia coli [8] = experiment: Antibacterial activity against Escherichia coli ATCC 25922 assessed as inhibition of bacterial growth; assay type: functional
Staphylococcus aureus [9] = experiment: Synergistic antibacterial activity against Staphylococcus aureus assessed as inhibition of bacterial growth in presence of norfloxacin; assay type: functional
Escherichia coli [10] = experiment: Synergistic antibacterial activity against Escherichia coli ATCC 25922 assessed as inhibition of bacterial growth in presence of norfloxacin; assay type: functional
Staphylococcus aureus [11] = experiment: Synergistic antibacterial activity against Staphylococcus aureus assessed as fractional inhibitory concentration index in presence of norfloxacin; assay type: functional
[12] = Hemolytic activity in RBC (unknown origin) assessed as hemolysis at 256 ug/ml incubated for 6 hrs relative to control; assay type: toxicity, cell-based, Erythrocyte; conditions: red blood cells (erythrocytes), at 256 µg/mL, read-out: Activity
Staphylococcus aureus [13] = experiment: Antibacterial activity against Staphylococcus aureus assessed as reduction in bacterial biofilm formation; assay type: functional, organism-based
Staphylococcus aureus [14] = experiment: Antibacterial activity against Staphylococcus aureus assessed as reduction in bacterial biofilm formation at 16 x MIC relative to control; assay type: functional; parameters: scale not given: the % may be the effect or the level left
Staphylococcus aureus [15] = experiment: Induction of drug resistance in Staphylococcus aureus assessed as increase in MIC measured for 16 passages; assay type: functional
Cell membrane [16] = experiment: Induction of cell membrane depolarization in Staphylococcus aureus assessed as increase in fluorescence intensity by DiSC3(5) dye-based fluorescence assay
Cell membrane [17] = experiment: Induction of cytoplasmic membrane depolarization in Staphylococcus aureus assessed as increase in fluorescence intensity measured at 10 mins by DiSC3(5) dye-based fluorescence assay; assay type: subcellular
Cell membrane [18] = experiment: Induction of cell membrane permeabilization in Staphylococcus aureus by propidium iodide dye-based fluorescence assay
Cell membrane [19] = experiment: Induction of cell membrane permeabilization in Staphylococcus aureus by calcein-AM dye-based fluorescence assay; assay type: subcellular
Cell membrane [20] = experiment: Disruption of cell membrane integrity in Staphylococcus aureus assessed as cell membrane damage by scanning electron microscopic analysis; assay type: subcellular
Cell membrane [21] = experiment: Disruption of cell membrane integrity in Staphylococcus aureus assessed as increase in protein leakage
Staphylococcus aureus [22] = experiment: Antibacterial activity against Staphylococcus aureus assessed as reduction in cellular metabolic activity by resazurin staining based assay; assay type: functional, organism-based
Staphylococcus aureus [23] = experiment: Antibacterial activity against Staphylococcus aureus assessed as fold increase in intracellular ROS production at 8 times MIC by DCFH-DA dye based fluorometric assay relative to control; assay type: functional
Staphylococcus aureus [24] = experiment: Antibacterial activity against Staphylococcus aureus assessed as increase in RNS production by griess reagent-based analysis; assay type: functional, organism-based
Staphylococcus aureus [25] = experiment: Antibacterial activity against Staphylococcus aureus assessed as fold increase in RNS production at 8 times MIC by griess reagent-based analysis; assay type: functional
Staphylococcus aureus [26] = experiment: Induction of oxidative stress in Staphylococcus aureus assessed as decrease in GSH activity at 8 times MIC relative to control; assay type: functional; parameters: scale not given: the % may be the effect or the level left
Staphylococcus aureus [27] = experiment: Antibacterial activity against Staphylococcus aureus assessed as fold increase in malondialdehyde level at 1 to 5 times MIC; assay type: functional
Staphylococcus aureus [28] = experiment: Antibacterial activity against Staphylococcus aureus assessed as effect on lipid peroxidation production at 1 to 5 times MIC incubated for 5 to 20 mins; assay type: functional, organism-based; conditions: time 5-20 min
Calf thymus DNA [29] = experiment: Binding affinity to calf thymus DNA assessed as intercalation by measuring hypochromic shift by UV-Vis spectroscopic analysis; assay type: nucleic-acid assay; conditions: Bos taurus
Calf thymus DNA [30] = experiment: Binding affinity to calf thymus DNA by acridine orange staining based competitive binding assay; assay type: nucleic-acid assay; conditions: Bos taurus
Calf thymus DNA [31] = experiment: Binding affinity to calf thymus DNA by DAPI staining based competitive binding assay; assay type: nucleic-acid assay; conditions: Bos taurus
Staphylococcus aureus [32] = experiment: Antibacterial activity against Staphylococcus aureus assessed as inhibition of bacterial growth at 1 to 4 times MIC incubated for 4 hrs; assay type: functional, organism-based
Staphylococcus aureus [33] = experiment: Antibacterial activity against Staphylococcus aureus assessed as inhibition of bacterial growth at 0.5 times MIC incubated for 4 hrs; assay type: functional, organism-based
Escherichia coli [34] = experiment: Synergistic antibacterial activity against Escherichia coli ATCC 25922 assessed as fractional inhibitory concentration index in presence of norfloxacin; assay type: functional
Staphylococcus aureus [35] = experiment: Synergistic antibacterial activity against Staphylococcus aureus assessed as inhibition of bacterial growth in presence of compound 6f; assay type: functional
Escherichia coli [36] = experiment: Synergistic antibacterial activity against Escherichia coli ATCC 25922 assessed as inhibition of bacterial growth in presence of compound 6f; assay type: functional
Staphylococcus aureus [37] = experiment: Induction of drug resistance in Staphylococcus aureus assessed as fold increase in MIC measured for 23 passages; assay type: functional

For `CCOP(=O)(OCC)C(Nc1ccc2c(C)cc(=O)oc2c1)c1cccc(O)c1` (configuration not stated), the MIC (Staphylococcus aureus [1]) was 32 µg/mL (≈ 76.7 µM), the MIC (Enterococcus faecalis) was 16 µg/mL (≈ 38.3 µM) and the MIC (Staphylococcus aureus [2]) was 0.5 µg/mL (≈ 1.2 µM). For the same compound, the MIC (Staphylococcus aureus [3]) was 8 µg/mL (≈ 19.2 µM), the MIC (Staphylococcus aureus [4]) was 16 µg/mL (≈ 38.3 µM) and the MIC (Klebsiella pneumoniae) was 64 µg/mL (≈ 153 µM). For the same compound, the MIC (Escherichia coli [5]) was 64 µg/mL (≈ 153 µM), the MIC (Pseudomonas aeruginosa [6]) was 16 µg/mL (≈ 38.3 µM) and the MIC (Acinetobacter baumannii) was 16 µg/mL (≈ 38.3 µM). The MIC (Pseudomonas aeruginosa [7]) was 64 µg/mL (≈ 153 µM), the MIC (Escherichia coli [8]) was 4 µg/mL (≈ 9.58 µM) and the MIC (Staphylococcus aureus [9]) was 0.063 µg/mL. The MIC (Escherichia coli [10]) was 1 µg/mL, the “fractional inhibitory concentration index (FICI)” value (Staphylococcus aureus [11]) was 0.25 and the hemolysis at 6 h, 256 ug/ml [12] was less than 4%. The Activity (Staphylococcus aureus [13]) was “Dose-Dependent Effect”, the Activity (Staphylococcus aureus [14]) was 30% and the Activity (Staphylococcus aureus [15]) was “inactive”. The Activity (Cell membrane [16]) was “Dose-Dependent Effect”, the Activity (Cell membrane [17]) was “Active” and the Activity (Cell membrane [18]) was “Dose-Dependent Effect”. For the same compound, the Activity (Cell membrane [19]) was “Dose-Dependent Effect”, the Activity (Cell membrane [20]) was “Active” and the Activity (Cell membrane [21]) was “Dose-Dependent Effect”. For the same compound, the Activity (Staphylococcus aureus [22]) was “Dose-Dependent Effect”, the “fold change (FC)” value (Staphylococcus aureus [23]) was 3.7 and the Activity (Staphylococcus aureus [24]) was “Dose-Dependent Effect”. For the same compound, the “fold change (FC)” value (Staphylococcus aureus [25]) was 2.2, the Activity (Staphylococcus aureus [26]) was 16% and the “fold change (FC)” value (Staphylococcus aureus [27]) was 2. The Activity (Staphylococcus aureus [28]) was “inactive”, the Activity (Calf thymus DNA [29]) was “Dose-Dependent Effect” and the Activity (Calf thymus DNA [30]) was “Active”. The Activity (Calf thymus DNA [31]) was “Active”, the Activity (Staphylococcus aureus [32]) was “Active” and the Activity (Staphylococcus aureus [33]) was “Active”. The “fractional inhibitory concentration index (FICI)” value (Escherichia coli [34]) was 0.75.

Compound `CCn1cc(C(=O)O)c(=O)c2cc(F)c(N3CCNCC3)cc21` [NORFLOXACIN] has an MIC (Staphylococcus aureus [1]) of 4 µg/mL (≈ 12.5 µM), an MIC (Enterococcus faecalis) of 8 µg/mL (≈ 25.1 µM) and an MIC (Staphylococcus aureus [2]) of 16 µg/mL (≈ 50.1 µM). The MIC (Staphylococcus aureus [3]) was 8 µg/mL (≈ 25.1 µM), the MIC (Staphylococcus aureus [4]) was 16 µg/mL (≈ 50.1 µM) and the MIC (Klebsiella pneumoniae) was 1 µg/mL (≈ 3.13 µM). It also gave an MIC (Escherichia coli [5]) of 8 µg/mL (≈ 25.1 µM), an MIC (Pseudomonas aeruginosa [6]) of 4 µg/mL (≈ 12.5 µM) and an MIC (Acinetobacter baumannii) of 8 µg/mL (≈ 25.1 µM). The MIC (Pseudomonas aeruginosa [7]) was 4 µg/mL (≈ 12.5 µM), the MIC (Escherichia coli [8]) was 16 µg/mL (≈ 50.1 µM) and the MIC (Staphylococcus aureus [35]) was 4 µg/mL. The MIC (Escherichia coli [36]) was 8 µg/mL and the fold change (FC) (Staphylococcus aureus [37]) was 32.

For `CCOP(=O)(OCC)C(Nc1ccc2c(C)c(C)c(=O)oc2c1)c1cccc(O)c1` (configuration not stated), the MIC (Staphylococcus aureus [1]) was 128 µg/mL (≈ 297 µM), the MIC (Enterococcus faecalis) was 32 µg/mL (≈ 74.2 µM) and the MIC (Staphylococcus aureus [2]) was 32 µg/mL (≈ 74.2 µM). For the same compound, the MIC (Staphylococcus aureus [3]) was 64 µg/mL (≈ 148 µM), the MIC (Staphylococcus aureus [4]) was 16 µg/mL (≈ 37.1 µM) and the MIC (Klebsiella pneumoniae) was 64 µg/mL (≈ 148 µM). For the same compound, the MIC (Escherichia coli [5]) was 32 µg/mL (≈ 74.2 µM), the MIC (Pseudomonas aeruginosa [6]) was 128 µg/mL (≈ 297 µM) and the MIC (Acinetobacter baumannii) was 256 µg/mL (≈ 593 µM). It also gave an MIC (Pseudomonas aeruginosa [7]) of 16 µg/mL (≈ 37.1 µM) and an MIC (Escherichia coli [8]) of 64 µg/mL (≈ 148 µM).
